# Measurements as given in patent publication US11746100B2 (GLOBAL BLOOD THERAPEUTICS, INC., priority 2020, dated 2023).
# Biological target: T1, human ferroportin (Homo sapiens, UniProt Q9NP59)
# T1 construct: luciferase reporter (read with the Nano-Glo Luciferase Assay System); expressed in transfected cells; host or cells: CHO cells, stably transfected, expression induced with doxycycline
# T1 sequence (Q9NP59 1-571): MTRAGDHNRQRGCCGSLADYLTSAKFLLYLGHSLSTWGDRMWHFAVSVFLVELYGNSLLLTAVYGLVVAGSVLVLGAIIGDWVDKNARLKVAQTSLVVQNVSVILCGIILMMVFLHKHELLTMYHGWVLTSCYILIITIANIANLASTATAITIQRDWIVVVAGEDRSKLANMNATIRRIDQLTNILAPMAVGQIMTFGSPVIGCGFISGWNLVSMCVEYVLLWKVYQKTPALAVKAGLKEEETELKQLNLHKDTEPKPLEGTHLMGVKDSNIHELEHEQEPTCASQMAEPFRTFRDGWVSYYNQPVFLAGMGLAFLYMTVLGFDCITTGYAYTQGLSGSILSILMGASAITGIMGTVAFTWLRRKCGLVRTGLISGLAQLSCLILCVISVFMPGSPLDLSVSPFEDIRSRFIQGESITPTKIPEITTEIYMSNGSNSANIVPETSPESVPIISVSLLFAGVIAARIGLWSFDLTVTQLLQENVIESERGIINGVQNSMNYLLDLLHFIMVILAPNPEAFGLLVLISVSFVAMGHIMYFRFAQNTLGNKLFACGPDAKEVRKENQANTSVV
# Assay: Biological in-vitro ferroportin internalization assay (luciferase reporter)
# Assay type: cell-based
# Settings: average pEC50; stably-transfected CHO cell line expressing human ferroportin tagged to a luciferase reporter; 6 h incubation with test compound
# Summary of the method: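 Stably transfected CHO cells expressing luciferase-tagged human ferroportin, plated 24 h with ferric ammonium citrate and induced with doxycycline for 24 h. Compounds incubated 6 h, then luciferase activity measured by Nano-Glo; average pEC50 reported.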
row,SMILES,pEC50
1,"C[C@H](C(=O)NC(C)(C)C)N(C)c1nc(-c2cc(OCCO)ccn2)nc2c1CCC2 [Compound 311, (2R)-N-tert-butyl-2-({2-[4-(2-hydroxyethoxy)pyridin-2-yl]-5H,6H,7H-cyclopenta[d]pyrimidin-4-yl}(methyl)amino)propanamide]",8.4
2,"Cc1ccc(NC(=O)CN(C)c2nc(-c3cc4cn[nH]c4cn3)nc3c2CCC3)cn1 [Compound 267, 2-[methyl(2-{1H-pyrazolo[3,4-c]pyridin-5-yl}-5H,6H,7H-cyclopenta[d]pyrimidin-4-yl)amino]-N-(6-methylpyridin-3-yl)acetamide]",7.1
3,"CN(c1nc(-c2ccccn2)nc2c1CCC2)[C@H]1CCN(c2ccncc2)C1=O [Compound 208, (3S)-3-{methyl[2-(pyridin-2-yl)-5H,6H,7H-cyclopenta[d]pyrimidin-4-yl]amino}-1-(pyridin-4-yl)pyrrolidin-2-one]",5.7
4,"Cc1ccc(NC(=O)CN(C)c2nc(-c3cc(OCC(C)(C)O)ccn3)nc3c2CCC3)cn1 [Compound 302, 2-({2-[4-(2-hydroxy-2-methylpropoxy)pyridin-2-yl]-5H,6H,7H-cyclopenta[d]pyrimidin-4-yl}(methyl)amino)-N-(6-methylpyridin-3-yl)acetamide]",7.9
5,"Cc1ccc(NC(=O)CN(C)c2nc(-c3ccc(F)cn3)nc3c2CCC3)cn1 [Compound 298, 2-{[2-(5-fluoropyridin-2-yl)-5H,6H,7H-cyclopenta[d]pyrimidin-4-yl](methyl)amino}-N-(6-methylpyridin-3-yl)acetamide]",6.1
6,"COc1ccnc(-c2nc3c(c(N(C)CC(=O)Nc4ccc(=O)n(C)c4)n2)CCC3)c1 [Compound 281, 2-{[2-(4-methoxypyridin-2-yl)-5H,6H,7H-cyclopenta[d]pyrimidin-4-yl](methyl)amino}-N-(1-methyl-6-oxo-1,6-dihydropyridin-3-yl)acetamide]",7.3
7,"Cc1ccc(NC(=O)CN(C)c2nc(-c3cc4cc(CO)ccc4cn3)nc3c2CCC3)cn1 [Compound 297, 2-({2-[6-(hydroxymethyl)isoquinolin-3-yl]-5H,6H,7H-cyclopenta[d]pyrimidin-4-yl}(methyl)amino)-N-(6-methylpyridin-3-yl)acetamide]",7.5
8,"CN(CC(=O)NC(C)(C)C)c1nc(-c2cc3scnc3cn2)nc2c1CCC2 [Compound 301, N-tert-butyl-2-[methyl(2-{[1,3]thiazolo[4,5-c]pyridin-6-yl}-5H,6H,7H-cyclopenta[d]pyrimidin-4-yl)amino]acetamide]",6.9
9,"CN(CC(=O)Nc1ccc2c(c1)OC(F)(F)O2)c1nc(-c2ccccn2)nc2c1CCC2 [Compound 32, N-(2,2-difluoro-2H-1,3-benzodioxol-5-yl)-2-{methyl[2-(pyridin-2-yl)-5H,6H,7H-cyclopenta[d]pyrimidin-4-yl]amino}acetamide]",7.2
10,"COCCOc1ccnc(-c2nc3c(c(N(C)CC(=O)NC(C)(C)C)n2)CCC3)c1 [Compound 239, N-tert-butyl-2-({2-[4-(2-methoxyethoxy)pyridin-2-yl]-5H,6H,7H-cyclopenta[d]pyrimidin-4-yl}(methyl)amino)acetamide]",7.8
11,"COc1ccc(NC(=O)CN(C)c2nc(-c3cc(OCCO)ccn3)nc3c2CCC3)nn1 [Compound 285, 2-({2-[4-(2-hydroxyethoxy)pyridin-2-yl]-5H,6H,7H-cyclopenta[d]pyrimidin-4-yl}(methyl)amino)-N-(6-methoxypyridazin-3-yl)acetamide]",7.8
12,"COc1ccnc(-c2nc3c(c(N(C)[C@H](C)C(=O)NC(C)(C)C)n2)CCC3)c1 [Compound 101, (2R)—N-tert-butyl-2-{[2-(4-methoxypyridin-2-yl)-5H,6H,7H-cyclopenta[d]pyrimidin-4-yl](methyl)amino}propanamide]",8.2
13,"CC(C)NC(=O)CN(C)c1nc(-c2cc(OCC3(O)CCOCC3)ccn2)nc2c1CCC2 [Compound 444, 2-[(2-{4-[(4-hydroxyoxan-4-yl)methoxy]pyridin-2-yl}-5H,6H,7H-cyclopenta[d]pyrimidin-4-yl)(methyl)amino]-N-(propan-2-yl)acetamide]",7.9
14,"CN(CC(=O)NC1(C)CCOC1)c1nc(-c2cn(C)cn2)nc2c1CCC2 (centres unmarked) [Compound 147, 2-{methyl[2-(1-methyl-1H-imidazol-4-yl)-5H,6H,7H-cyclopenta[d]pyrimidin-4-yl]amino}-N-(3-methyloxolan-3-yl)acetamide]",6.7
15,"c1ccc(-c2nc3c(c(N4CCCO[C@H]5CCC[C@@H]54)n2)CCC3)nc1 [Compound 18, 2-{4-[(5aS,8aS)-octahydro-2H-cyclopenta[b][1,4]oxazepin-5-yl]-5H,6H,7H-cyclopenta[d]pyrimidin-2-yl}pyridine]",7.1
16,"CN(CC(=O)NC1(C(F)(F)F)CC1)c1nc(-c2cn(C)cn2)nc2c1CCC2 [Compound 111, 2-{methyl[2-(1-methyl-1H-imidazol-4-yl)-5H,6H,7H-cyclopenta[d]pyrimidin-4-yl]amino}-N-[1-(trifluoromethyl)cyclopropyl]acetamide]",7.2
17,"CN(CC(=O)NC(C)(C)CO)c1nc(-c2cn(C)cn2)nc2c1CCC2 [Compound 143, N-(1-hydroxy-2-methylpropan-2-yl)-2-{methyl[2-(1-methyl-1H-imidazol-4-yl)-5H,6H,7H-cyclopenta[d]pyrimidin-4-yl]amino}acetamide]",7.2
18,"CSc1ccnc(-c2nc3c(c(N(C)CC(=O)NC(C)(C)C)n2)CCC3)c1 [Compound 498, N-tert-butyl-2-[methyl({2-[4-(methylsulfanyl)pyridin-2-yl]-5H,6H,7H-cyclopenta[d]pyrimidin-4-yl})amino]acetamide]",7.5
19,"CC(C)NC(=O)CN(C)c1nc(-c2cc(OCC(C)(C)O)ccn2)nc2c1CCC2(C)C [Compound 450, 2-({2-[4-(2-hydroxy-2-methylpropoxy)pyridin-2-yl]-7,7-dimethyl-5H,6H,7H-cyclopenta[d]pyrimidin-4-yl}(methyl)amino)-N-(propan-2-yl)acetamide]",6.4
20,"CCc1ccnc(-c2nc3c(c(N(C)CC(=O)NC(C)(C)C)n2)CCC3)c1 [Compound 100, N-tert-butyl-2-{[2-(4-ethylpyridin-2-yl)-5H,6H,7H-cyclopenta[d]pyrimidin-4-yl](methyl)amino}acetamide]",7.5
21,"CSCC[C@H](C(=O)NC(C)(C)C)N(C)c1nc(-c2ccccn2)nc2c1CCC2 [Compound 116, (2R)—N-tert-butyl-2-{methyl[2-(pyridin-2-yl)-5H,6H,7H-cyclopenta[d]pyrimidin-4-yl]amino}-4-(methylsulfanyl)butanamide]",7.4
22,"CC(C)NC(=O)CN(C)c1nc(-c2cc(OCCN(C)C)ccn2)nc2c1CC(C)(C)C2 [Compound 455, 2-[(2-{4-[2-(dimethylamino)ethoxy]pyridin-2-yl}-6,6-dimethyl-5H,6H,7H-cyclopenta[d]pyrimidin-4-yl)(methyl)amino]-N-(propan-2-yl)acetamide]",7.7
23,"CC1(C)CC[C@@H](Nc2nc(-c3ccccn3)nc3c2CCC3)C(=O)N1 [Compound 55, (3R)-6,6-dimethyl-3-{[2-(pyridin-2-yl)-5H,6H,7H-cyclopenta[d]pyrimidin-4-yl]amino}piperidin-2-one]",6.3
24,"CN(CC(=O)NC(C)(C)C)c1nc(-c2ncccc2O)nc2c1CCC2 [Compound 181, N-tert-butyl-2-{[2-(3-hydroxypyridin-2-yl)-5H,6H,7H-cyclopenta[d]pyrimidin-4-yl](methyl)amino}acetamide]",6.5
25,"CN(CC(=O)Nc1cccc(F)c1)c1nc(-c2cc(OCCN3CCCC3)ccn2)nc2c1CCC2 [Compound 252, N-(3-fluorophenyl)-2-[methyl(2-{4-[2-(pyrrolidin-1-yl)ethoxy]pyridin-2-yl}-5H,6H,7H-cyclopenta[d]pyrimidin-4-yl)amino]acetamide]",7.9
26,"CN(CC(=O)NC(C)(C)C)c1nc(-c2cc(OCCF)ccn2)nc2c1CCC2 [Compound 241, N-tert-butyl-2-({2-[4-(2-fluoroethoxy)pyridin-2-yl]-5H,6H,7H-cyclopenta[d]pyrimidin-4-yl}(methyl)amino)acetamide]",8
27,"COc1ccc(NC(=O)CN(C)c2nc(-c3cc(OC(F)F)ccn3)nc3c2CCC3)cn1 [Compound 225, 2-({2-[4-(difluoromethoxy)pyridin-2-yl]-5H,6H,7H-cyclopenta[d]pyrimidin-4-yl}(methyl)amino)-N-(6-methoxypyridin-3-yl)acetamide]",6.8
28,"CN(C)CCOc1ccnc(-c2nc3c(c(N(C)CC(=O)NC(C)(C)C)n2)CC(C)(C)C3)c1 [Compound 454, N-tert-butyl-2-[(2-{4-[2-(dimethylamino)ethoxy]pyridin-2-yl}-6,6-dimethyl-5H,6H,7H-cyclopenta[d]pyrimidin-4-yl)(methyl)amino]acetamide]",7.9
29,"CNCCCc1ccnc(-c2nc3c(c(N(C)CC(=O)NC(C)(C)C)n2)CCC3)c1 [Compound 480, N-tert-butyl-2-[methyl(2-{4-[3-(methylamino)propyl]pyridin-2-yl}-5H,6H,7H-cyclopenta[d]pyrimidin-4-yl)amino]acetamide]",7.3
